One may read the Ki as a measure of affinity in units of concentration, obtained from inhibition or displacement. A word on the inhibition: it is the change of the read-out against control, counted positive when it falls. A low value points to a response near the control.

This is an account of results in patent US20210284621A1 (priority 2018, published 2021).

Experiment [1] deals with T1, CB1 receptor (Homo sapiens, UniProt P21554). Kind of experiment: cell-based. Details: host or cells: PathHunter cell lines.
T1 sequence (P21554 whole entry): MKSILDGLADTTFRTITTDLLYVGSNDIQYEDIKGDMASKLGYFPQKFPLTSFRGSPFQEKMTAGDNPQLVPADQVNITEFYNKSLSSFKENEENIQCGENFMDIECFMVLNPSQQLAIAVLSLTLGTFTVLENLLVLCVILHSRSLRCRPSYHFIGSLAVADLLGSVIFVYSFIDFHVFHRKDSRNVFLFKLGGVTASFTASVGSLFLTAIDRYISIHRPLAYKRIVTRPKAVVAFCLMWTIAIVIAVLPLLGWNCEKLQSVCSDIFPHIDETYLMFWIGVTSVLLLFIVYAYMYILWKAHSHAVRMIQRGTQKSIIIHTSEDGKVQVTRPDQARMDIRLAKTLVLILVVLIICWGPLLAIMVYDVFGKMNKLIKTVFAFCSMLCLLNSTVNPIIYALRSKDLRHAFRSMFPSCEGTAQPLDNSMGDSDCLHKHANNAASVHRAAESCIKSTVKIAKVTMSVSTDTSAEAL
In experiment [2] the target is T2, CB2 receptor (Homo sapiens, UniProt P34972). Kind of experiment: cell-based. Details: host or cells: cAMP Hunter cell lines. The conditions noted are these: PathHunter agonist mode; read-out: CB2 Activity (β-Arrestin). The essentials:
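PathHunter β-Arrestin enzyme fragment complementation cells, EA-tagged β-Arrestin and PK-tagged receptor, exposed to compound for 90 to 180 minutes at 37° C. or room temperature, 1% vehicle. Chemiluminescence read 1 h after detection reagent; agonist % activity relative to vehicle and MAX control ligand.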

The target of experiment [3] is T1, CB1 receptor. Kind of experiment: cAMP Assay #1: CB1 adenylylcyclase assay in CHO cells. In kind it is cell-based. Set-up: expressed in transfected cells; host or cells: CHO cells. The method, then: (§1) Compounds of the invention were assayed in an adenylylcyclase assay to determine agonist activity on the CB1 and CB2 receptors, the results of which are provided in Table 4. Exemplary methods for the adenylylcyclase assay can be found in the literature, for example, in Rhee, M-H., et al. Cannabinol Derivatives: Binding to Cannabinoid Receptors and Inhibition of Adenylylcyclase. J Med Chem. 40: 3228-3233 (1997).
CB1 Activity as determined by Adenylylcyclase Assay: CB1 receptor agonist activity was measured by measuring cAMP production. A compound of the invention was incubated with CHO cells expressing human recombinant CB1 for 20 minutes at 37° C.
(§2) Determination of EC50 values: The EC50 values (concentration producing a half-maximal response) were determined by non-linear regression analysis of the concentration-response curves generated with mean replicate values using Hill equation curve fitting: Y=D+[(A−D)/(1+(C/C50)^nH)], where Y=response, A=left asymptote of the curve, D=right asymptote of the curve, C=compound concentration, and C50=EC50, and nH=slope factor. This analysis was performed using software developed at Cerep (Hill software) and validated by comparison with data generated by the commercial software SigmaPlot® 4.0 for Windows® (© 1997 by SPSS Inc.).

In experiment [4] the target is T2, CB2 receptor. Kind of experiment: cAMP Assay #1: CB2 adenylylcyclase assay in CHO cells. In kind it is cell-based. Set-up: expressed in transfected cells; host or cells: CHO cells. On the procedure: as §1
CB2 Activity as determined by Adenylylcyclase Assay: CB2 receptor agonist activity was measured by measuring cAMP production. A compound of the invention was incubated with CHO cells expressing human recombinant CB2 for 10 minutes at 37° C.
as §2

In experiment [5] the target is T1, CB1 receptor. Kind of experiment: CB1 competitive radioligand binding assay ([3H] SR141716A). Set-up: expressed in transfected cells; host or cells: Chem-1 cells. The essentials:
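Chem-1 cells expressing human recombinant CB1 incubated 90 min at 37° C with 2.0 nM [3H]SR141716A and compound at 0.5 μM (1% DMSO) in HEPES pH 7.4 buffer with MgCl2, CaCl2, 0.2% BSA. Read-out is % inhibition of radioligand binding.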

Experiment [6] deals with T2, CB2 receptor. Kind of experiment: CB2 competitive radioligand binding assay ([3H] WIN-55,212-2). Set-up: expressed in transfected cells; host or cells: CHO-K1 cells. The essentials: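 CHO-K1 cells expressing human recombinant CB2 were incubated with compound (0.05 μM, 1% DMSO) and 2.4 nM [3H]WIN-55,212-2 in 20 mM HEPES pH 7.0, 0.5% BSA for 90 min at 37 °C. Percent inhibition of radioligand binding was reported.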

Experiment [7] relates to LPS-induced PBMCs. Kind of experiment: Inflammatory cytokine release from LPS-induced PBMCs (Luminex). In kind it is cell-based, human. Particulars: fold change from LPS-treated PBMCs, compounds 10 μM (DEX 1 μg/ml) 2 h, then LPS 0.1 μg/ml 24 h, negative = reduced; for IL-12 (p70) / L-31: OOR = out of standard curve range. The method, then: Compounds of the invention were assayed for their effect on inflammatory cytokine release from lipopolysaccharides (LPS)-induced PBMCs, isolated from a human blood sample, the results of which are provided in Table 7 as fold change. Exemplary methods for quantifying secretion of inflammatory cytokines in PBMCs are known in the art, for example, as described in Hailer et al., Infection and Immunity. 68(2):752-759 (2000); and Merlini et al., Frontiers in Immunology. 7:614 (2016); each of which is incorporated herein by reference with respect to methods for evaluating cytokine release in PBMCs.
In brief, human blood samples from healthy volunteers were collected and PBMCs were isolated. PBMCs were cultured and each compound was assayed in triplicate at a final concentration of 10 μM for 2 hours. 1 μg/ml dexamethasone (DEX) served as a positive control. LPS was added at a final concentration of 0.1 μg/ml and further incubated for 24 hours. At the end of the incubation, the supernatants were collected and the levels of a panel of secreted cytokines were measured by a Human Magnetic Luminex® assay (R&D). The results in Table 7 are presented as a fold change from LPS-treated PBMCs. Reduced levels are expressed by negative values. OOR denotes values that are out of the standard curve range for the specific cytokine and thus, could not be accurately measured. Cytotoxicity was also determined. Compounds with cytotoxicity ≥50% was considered cytotoxic. Baseline cytotoxicity of untreated PBMCs was 17% and all compounds presented in Table 7 induced cytotoxicity below 25%.

Experiment [8] deals with T1, CB1 receptor. Kind of experiment: cAMP Assay #2: Hit Hunter cAMP assay, Gi-coupled agonist activity, CB1. In kind it is cell-based. Set-up: host or cells: PathHunter cell lines. The method, then: (§3) Compounds of the invention were assayed in the Hit Hunter® cAMP assay to determine Gi-coupled agonist activity on the CB1 and CB2 receptors, the results of which are provided in Table 5.
(§4) The Hit Hunter® cAMP assay monitors the activation of a GPCR via Gi and […] secondary messenger signaling in a homogenous, non-imaging assay format using a technology developed by DiscoverX called Enzyme Fragment Complementation (EFC) with β-galactosidase (β-Gal) as the functional reporter. […] ED is fused to cAMP and in the assay competes with cAMP generated by cells for binding to a cAMP-specific antibody. Active β-Gal is formed by complementation of exogenous EA to any unbound ED cAMP. Active enzymes can then convert a chemiluminescent substrate, generating an output signal detectable on a standard microplate reader.
(§5) cAMP Hunter cell lines were expanded from freezer stocks according to standard procedures. Cells were seeded in a total volume of 20 μL into white walled, 384-well microplates and incubated at 37° C. for the appropriate time prior to testing. cAMP modulation was determined using the DiscoverX Hit Hunter cAMP XS+ assay. For Gi agonist activity determination, cells were incubated with sample in the presence of EC80 forskolin to induce response (20 μM and 25 μM in the CB1 and CB2 assays, respectively). Media was aspirated from cells and replaced with 15 μL 2:1 HBSS/10 mM HEPES:cAMP XS+Ab reagent.
(§6) Intermediate dilution of sample stocks was performed to generate 4× sample in assay buffer. 5 μL of 4× compound was added to cells and incubated at 37° C. or room temperature for 30 or 60 minutes. Final vehicle concentration was 1%. Assay signal was generated through incubation with 20 μL cAMP XS+ED/CL lysis cocktail for one hour at room temperature. Microplates were read following signal generation with a PerkinElmer Envision™ instrument for chemiluminescent signal detection. Compound activity was analyzed using CBIS data analysis suite (Chem Innovation, CA). For agonist assays, percentage activity was calculated using the following formula: % Activity=100%×(1−(mean RLU of test sample−mean RLU of Max control ligand)/(mean RLU of vehicle control−mean RLU of Max control ligand). Control ligand was the non-selective CB1/CB2 agonist CP55,940.

Experiment [9] deals with T2, CB2 receptor. Kind of experiment: cAMP Assay #2: Hit Hunter cAMP assay, Gi-coupled agonist activity, CB2. The conditions noted are these: for CB2 fold selectivity: Hit Hunter cAMP, CB1 EC50 / CB2 EC50. In kind it is cell-based. Set-up: host or cells: cAMP Hunter cell lines. The method, then: as §3, §4, §5, §6
The mark [10] stands for this setting: PathHunter agonist mode, read-out: CB1 Activity (β-Arrestin).

Molecules are shown by their SMILES. Bounds are passed on as bounds.

T2 sequence (P34972 whole entry, the tested form may be a part): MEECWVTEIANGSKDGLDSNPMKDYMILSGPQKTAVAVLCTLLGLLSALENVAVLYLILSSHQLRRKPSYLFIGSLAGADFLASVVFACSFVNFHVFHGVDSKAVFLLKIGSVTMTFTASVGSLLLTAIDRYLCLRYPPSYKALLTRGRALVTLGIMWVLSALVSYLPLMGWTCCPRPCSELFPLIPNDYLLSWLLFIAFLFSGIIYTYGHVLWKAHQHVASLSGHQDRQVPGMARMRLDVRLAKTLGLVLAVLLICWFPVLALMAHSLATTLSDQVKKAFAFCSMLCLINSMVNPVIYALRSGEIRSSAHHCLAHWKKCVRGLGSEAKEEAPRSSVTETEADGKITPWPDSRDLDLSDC

`CCCCCCC(C)(C)c1cc(OC)c2c(c1)OC(C)(C)[C@@H]1CC=C(C(=O)O)C[C@@H]21` [Compound 34, (6aR,10aR)-1-methoxy-6,6-dimethyl-3-(2-methyloctan-2-yl)-6a,7,10,10a-tetrahydro-6H-benzo[c]chromene-9-carboxylic acid]: the EC50 in experiment [1] is more than 3000 nM; in experiment [2], more than 3000 nM; in experiment [3], more than 300 nM; in experiment [4] it was more than 300 nM. Moreover, the Ki in experiment [5] and in experiment [6] was more than 3000 nM throughout.

Regarding `CCCCCCC(C)(C)c1cc(O)c2c(c1)OC(C)(C)[C@@H]1CC=C(C(=O)OC)C[C@@H]21` [Compound 28, Methyl (6aR,10aR)-1-hydroxy-6,6-dimethyl-3-(2-methyloctan-2-yl)-6a,7,10,10a-tetrahydro-6H-benzo[c]chromene-9-carboxylate], the EC50 in [1] was 654 nM; in experiment [2], 1.7 nM; in experiment [3], 8.2 nM; in [4], 59 nM. Besides, the Ki came to 699 nM in experiment [5] and 32 nM in experiment [6]. Besides, 0.5 µM produced 74% inhibition in experiment [5] (0.5 μM compound, 2.0 nM [3H] SR141716A, 90 min 37° C.). Also, testing at 0.05 µM in [6] (0.05 μM compound, 2.4 nM [3H] WIN-55,212-2, 90 min 37° C.) gave an inhibition of 77%. In experiment [6] (Table 2, ratio of Ki CB1/CB2), the “Fold Selectivity (CB1/CB2)” value is on record as 22.

In experiment [7], `CCCCC(C)(C)c1cc(O)c2c(c1)OC(C)(C)[C@@H]1CC=C(C(=O)O)C[C@@H]21` [Compound 109] returned an IL17A of 1.2 fold change, an IL-1β of −3.3 fold change, an IL-4 of −1.5 fold change and an IL-6 of −1.4 fold change. In experiment [7], this compound displayed an IL-8 of −1.0 fold change, an IL-10 of −1.3 fold change, an MCP-1 of −5.0 fold change and a TNFα of −1.3 fold change. In [7], the “IL-12 (p70)” value was −1.6 fold change and the L-31 is −1.5 fold change. Besides, the EC50 in [8] was determined as 1220 nM. In experiment [1] (setting [10]), the EC50 is more than 3000 nM. In experiment [9], this compound showed an EC50 of 148 nM and a CB2 fold selectivity of 8.3. Further, in experiment [2], the EC50 is 58.1 nM. For the same compound, the Ki in experiment [5] is more than 3000 nM. For the same compound, the Ki in [6] is more than 3000 nM.

With `CC(C)(c1ccccc1)c1cc(O)c2c(c1)OC(C)(C)[C@@H]1CC=C(C(=O)O)C[C@@H]21` [Compound 35, (6aR,10aR)-1-Hydroxy-6,6-dimethyl-3-(2-phenylpropan-2-yl)-6a,7,10,10a-tetrahydro-6H-benzo[c]chromene-9-carboxylic acid], the EC50 in experiment [1] (setting [10]) is more than 3000 nM; in experiment [2] it was more than 3000 nM; in [3], more than 300 nM; in [4], more than 300 nM. Besides, the Ki in experiment [5] and in experiment [6] was more than 3000 nM throughout.

Regarding `CCCCCCC(C)(C)c1cc(O)c2c(c1)OC(C)(C)[C@@H]1CC=C(C(=O)NC3(C(F)(F)F)CC3)C[C@@H]21` [Compound 99, (6aR,10aR)-1-hydroxy-N-(1-trifluoromethyl-cyclopropyl)-6,6-dimethyl-3-(2-methyloctan-2-yl)-6a,7,10,10a-tetrahydro-6H-benzo[c]chromene-9-carboxamide], in experiment [7], the IL17A was found to be 1.2 fold change, the IL-1β is on record as 1.2 fold change, the IL-4 was −1.4 fold change and the IL-6 is −2.6 fold change. In [7], the IL-8 is −1.0 fold change, the IL-10 was −7.0 fold change, the MCP-1 is on record as −3.3 fold change and the TNFα is reported as −1.4 fold change. Moreover, in experiment [7], the “IL-12 (p70)” value was −1.6 fold change and the L-31 is recorded as −1.1 fold change. Also, the EC50 in experiment [8] amounted to 19.1 nM. Further, the EC50 in [1] is 32.5 nM. In experiment [9], this compound had an EC50 of 1.3 nM and a CB2 fold selectivity of 14.9. In addition, the EC50 in [2] turned out to be 1.2 nM. This compound also came in with an inhibitory constant (Ki) in experiment [5] of 8.9 nM. For the same compound, the Ki in [6] was 2 nM. Besides, in [6] (Table 3, ratio of Ki CB1/CB2), the “Fold Selectivity (CB1/CB2)” value came out at 4.5.
